Results reported in patent publication US8008316B2, “Azonafide derived tumor and cancer targeting compounds” (The United States of America as represented by the …, priority 2006, dated 2011).

System: Gastrin receptor-expressing rat pancreatic cells (NIH line AR42J)
Assay: Viable cell count of AR42J cells after about five days of exposure
Type: cell-based
Conditions: for % Viable Cells: rat
Method: The number of viable cells left in the culture after the five day period was measured, and compared to a control culture that was not exposed either compound. The number of cells remaining in each of the experimental cultures, expressed as a percentage of viable cells in the control culture, is provided in Table 4, below.

COc1ccc2c3c(c4ccccc4cc13)C(=O)N(CCN(C)CCN)C2=O [MD117, 2-{2-[(2-aminoethyl)methylamino]ethyl}-6-methoxy-1,2-dihydro-3H-dibenzo[de,h]isoquinoline-1,3-dione]
cell killing at the tested concentrations (AR42J, 10, 50, 100 and 1000 nM, result in words): killing all cells in the culture at each of the tested concentrations
CC50 (Rattus norvegicus, AR-42J, 120 h, read-out: LC50 (median concentration required for death of 50% of the cell population), AR42J, about five days, calculated from the data): 3 nM
% Viable Cells (0.01 µM): −100%
% Viable Cells (0.05 µM): −100%
% Viable Cells (0.1 µM): −100%
% Viable Cells (1 µM): −100%
